Reference: patent publication US20080274892A1, “Novel Haloalkylsulfonanilide Derivative, Herbicide, and Method of Use Thereof” (priority 2005, published 2008)

What was measured:
[1] = test system: transplanted paddy rice plant and Bulrush; assay: Test Example 5: selectivity between transplanted paddy rice plant and weeds; format: in vivo; settings: (highest dosage with no phytotoxicity to paddy rice)/(lowest dosage with effective level 4 on Bulrush); rice 3000-100 g/ha, Bulrush 300-10 g/ha; 21 days
Experimental: (§1) The standard of judgment for herbicidal efficacy (degree of growth inhibition) and phytotoxicity 4 . . . 90%-100% of herbicidal efficacy or phytotoxicity 3 . . . 70%-89% of herbicidal efficacy or phytotoxicity 2 . . . 40%-69% of herbicidal efficacy or phytotoxicity 1 . . . 1%-39% of herbicidal efficacy or phytotoxicity 0 . . . 0% of herbicidal efficacy or phytotoxicity
Phytotoxicity test for transplanted paddy rice plants was carried out, as in Test Example 3, by the treatment of 3000, 1000, 300 and 100 (g/ha of the active ingredient) dosage, and herbicidal test to weed post-emergence was carried out to Burlush seeded as in Test Example 2 treating at 300, 100, 30 and 10 (g/ha) dosage. The pots were kept in a hot house for 21 days after the treatment, and the phytotoxicity and the herbicidal efficacy was investigated and evaluated according to the standard in Test Example 1 by comparing with the untreated control. […] Further, as a comparative compound, the compound No. 6-28 described in the JP-A-2004-107322 was used.

bulrush [2] = assay: Test Example 1: herbicidal efficacy on rice paddy weeds pre-emergence; format: in vivo, Scirpus juncoides; settings: 21 days
bulrush [3] = assay: Test Example 2: herbicidal efficacy on rice paddy weeds post-emergence; format: in vivo, Scirpus juncoides; settings: post-emergence, one leaf stage, 21 days after treatment
barnyard glass = assay: as above; format: in vivo, Echinochloa crus-galli; settings: post-emergence, one leaf stage, 21 days after treatment
Outline: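 Efficacy on paddy weeds was scored on a 0 to 4 growth-inhibition scale: 4 for 90%-100%, 3 for 70%-89%, 2 for 40%-69%, 1 for 1%-39% and 0 for 0%. Barnyard glass was grown in clay loam in 75 cm^2 pots under 5 cm of water in a hot house. It was compared with untreated pots 21 days after treatment.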

[4] = test system: paddy rice plant (cultivar: Nihonbare); assay: Test Example 3: phytotoxicity test for transplanted paddy rice plant; format: in vivo; settings: transplanted rice, 21 days after treatment
Outline: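 Clay loam soil was placed in a 75 cm^2 plastic pot and flooded to a water depth of 5 cm. Two Nihonbare paddy rice plants at the two-leaf stage were transplanted 1 cm deep and grown in a hot house. After treatment, pots stayed in the hot house for 21 days, and phytotoxicity was then graded against an untreated control.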

false pimpernel [5] = assay: Test Example 2: herbicidal efficacy on rice paddy weeds post-emergence; format: in vivo, Lindernia pyxidaria; settings: post-emergence, one leaf stage, 21 days after treatment
false pimpernel [6] = assay: Test Example 1: herbicidal efficacy on rice paddy weeds pre-emergence; format: in vivo, Lindernia pyxidaria; settings: 21 days
bulrush [7] = assay: Test Example 4: low dosage test for rice paddy weeds; format: in vivo, Scirpus juncoides; settings: 300 g/ha as an active ingredient; plants treated at the one leaf stage; 21 days after treatment; vs untreated control
Excerpt: as §1
A 75 cm^2 plastic pot was filled with soil (clay loam) and planted seeds of bulrush which is a rice paddy weed. After covering the top with 75 cm^3 soil, the pot was filled with water so that the soil submerged under 5 cm depth of water and kept in a hot house. The test plants, at the one leaf stage, were treated with the solution of a formulation containing the compound of the present invention as an active ingredient at the predetermined effective dosage (300 g/ha as an active ingredient). The pots were kept in a hot house for 21 days after the treatment and the herbicidal efficacy was investigated and evaluated according to the standard in Test Example 1 by comparing with the untreated control. Further, as a comparative compound, the compound No. 6-28 described in the JP-A-2004-107322 was used.

[8] = dosage 1000 g/ha, treated 5 days after transplantation

SMILES | Selective Index [1] | Bulrush pre (herbicidal efficacy grade) (bulrush [2]; dosage 1000 g/ha) | Bulrush post (herbicidal efficacy grade) (bulrush [3]; dosage 1000 g/ha) | Burnyard grass post (herbicidal efficacy grade) (barnyard glass; dosage 1000 g/ha) | Phytotoxicity to paddy rice [4, 8] | False pimpernel post (herbicidal efficacy grade) (false pimpernel [5]; dosage 1000 g/ha) | False pimpernel pre (herbicidal efficacy grade) (false pimpernel [6]; dosage 1000 g/ha) | Herbicide effect to Bulrush (bulrush [7]) | Bulrush pre (herbicidal efficacy grade) (bulrush [2]; dosage 300 g/ha) | Bulrush post (herbicidal efficacy grade) (bulrush [3]; dosage 300 g/ha) | Burnyard grass post (herbicidal efficacy grade) (barnyard glass; dosage 300 g/ha) | Phytotoxicity to paddy rice ([4]; dosage 300 g/ha) | False pimpernel post (herbicidal efficacy grade) (false pimpernel [5]; dosage 300 g/ha) | False pimpernel pre (herbicidal efficacy grade) (false pimpernel [6]; dosage 300 g/ha)
CC(C)C1(C)CN(Cc2ccccc2NS(=O)(=O)C(F)(F)F)C(=O)O1 (racemic) [1-101] | 10 | 4 (90%-100% of herbicidal efficacy or phytotoxicity) | 4 (90%-100% of herbicidal efficacy or phytotoxicity) | 4 (90%-100% of herbicidal efficacy or phytotoxicity) | 1 (1%-39% of herbicidal efficacy or phytotoxicity) | 4 (90%-100% of herbicidal efficacy or phytotoxicity) | 4 (90%-100% of herbicidal efficacy or phytotoxicity) | 4 (90%-100% of herbicidal efficacy or phytotoxicity) | – | – | – | – | – | –
COC1N(Cc2ccccc2N(C(=O)OCC(C)C)S(=O)(=O)C(F)(F)F)C(=O)OC1(C)C (stereo not shown) [Compound No. 1-197, 3-{2-[N-(isobutoxycarbonyl)-N-(trifluoromethanesulfonyl)-amino]benzyl}-4-methoxy-5,5-dimethyloxazolidin-2-one] | 10 | – | – | – | – | – | – | 4 (90%-100% of herbicidal efficacy or phytotoxicity) | 4 (90%-100% of herbicidal efficacy or phytotoxicity) | 4 (90%-100% of herbicidal efficacy or phytotoxicity) | 4 (90%-100% of herbicidal efficacy or phytotoxicity) | 2 (40%-69% of herbicidal efficacy or phytotoxicity) | 1 (1%-39% of herbicidal efficacy or phytotoxicity) | 3 (70%-89% of herbicidal efficacy or phytotoxicity)
CCCCC(CC)COC(=O)N(c1ccccc1CN1CC(C)(C)OC1=O)S(=O)(=O)C(F)(F)F (stereo not shown) [1-68] | 10 | 4 (90%-100% of herbicidal efficacy or phytotoxicity) | 4 (90%-100% of herbicidal efficacy or phytotoxicity) | 4 (90%-100% of herbicidal efficacy or phytotoxicity) | 1 (1%-39% of herbicidal efficacy or phytotoxicity) | 4 (90%-100% of herbicidal efficacy or phytotoxicity) | 4 (90%-100% of herbicidal efficacy or phytotoxicity) | 4 (90%-100% of herbicidal efficacy or phytotoxicity) | – | – | – | – | – | –
CC[C@@H]1CN(Cc2ccccc2NS(=O)(=O)C(F)(F)F)C(=O)O1 [1-57] | 10 | 4 (90%-100% of herbicidal efficacy or phytotoxicity) | 4 (90%-100% of herbicidal efficacy or phytotoxicity) | 4 (90%-100% of herbicidal efficacy or phytotoxicity) | 1 (1%-39% of herbicidal efficacy or phytotoxicity) | 4 (90%-100% of herbicidal efficacy or phytotoxicity) | 4 (90%-100% of herbicidal efficacy or phytotoxicity) | 4 (90%-100% of herbicidal efficacy or phytotoxicity) | – | – | – | – | – | –
CCC1(CC)CN(Cc2ccccc2NS(=O)(=O)C(F)(F)F)C(=O)O1 [1-61] | 3 | 4 (90%-100% of herbicidal efficacy or phytotoxicity) | 4 (90%-100% of herbicidal efficacy or phytotoxicity) | 4 (90%-100% of herbicidal efficacy or phytotoxicity) | 1 (1%-39% of herbicidal efficacy or phytotoxicity) | 4 (90%-100% of herbicidal efficacy or phytotoxicity) | 4 (90%-100% of herbicidal efficacy or phytotoxicity) | 4 (90%-100% of herbicidal efficacy or phytotoxicity) | – | – | – | – | – | –
C#CCOC(=O)N(c1ccccc1CN1CC(C)(C)OC1=O)S(=O)(=O)C(F)(F)F [1-79] | 10 | 4 (90%-100% of herbicidal efficacy or phytotoxicity) | 4 (90%-100% of herbicidal efficacy or phytotoxicity) | 4 (90%-100% of herbicidal efficacy or phytotoxicity) | 2 (40%-69% of herbicidal efficacy or phytotoxicity) | 4 (90%-100% of herbicidal efficacy or phytotoxicity) | 4 (90%-100% of herbicidal efficacy or phytotoxicity) | 4 (90%-100% of herbicidal efficacy or phytotoxicity) | – | – | – | – | – | –
CCC(C)COC(=O)N(c1ccccc1CN1CC(C)(C)OC1=O)S(=O)(=O)C(F)(F)F (stereo not shown) [1-67] | ≧30 | 4 (90%-100% of herbicidal efficacy or phytotoxicity) | 4 (90%-100% of herbicidal efficacy or phytotoxicity) | 4 (90%-100% of herbicidal efficacy or phytotoxicity) | 1 (1%-39% of herbicidal efficacy or phytotoxicity) | 4 (90%-100% of herbicidal efficacy or phytotoxicity) | 4 (90%-100% of herbicidal efficacy or phytotoxicity) | 4 (90%-100% of herbicidal efficacy or phytotoxicity) | – | – | – | – | – | –
COCC1(C)CN(Cc2ccccc2N(C(=O)OCC(C)(C)C)S(=O)(=O)C(F)(F)F)C(=O)O1 (stereo not shown) [1-146] | 10 | 4 (90%-100% of herbicidal efficacy or phytotoxicity) | 4 (90%-100% of herbicidal efficacy or phytotoxicity) | 4 (90%-100% of herbicidal efficacy or phytotoxicity) | 1 (1%-39% of herbicidal efficacy or phytotoxicity) | 4 (90%-100% of herbicidal efficacy or phytotoxicity) | 4 (90%-100% of herbicidal efficacy or phytotoxicity) | 4 (90%-100% of herbicidal efficacy or phytotoxicity) | – | – | – | – | – | –
